Active and inactive are the calls of the source. The calls are words filed in the database; no cut-off is given here.
Tests used:
[1] = test system: MDCK; test: Inhibition of [3H]glutathione uptake at glutathione transporter in MDCK cells at 10 nM to 1000 nM by HPLC; assay type: cell-based; settings: Canis lupus familiaris
[2] = Metabolic stability in rat brain at 37 degC; assay type: ADME, tissue-based
[3] = Metabolic stability in rat plasma at 37 degC; assay type: ADME, cell-free
[4] = Stability in buffer solution at pH 7.2

| half-life [2] | half-life [3] | half-life [4] | SMILES | Activity [1] |
| --- | --- | --- | --- | --- |
| 6 h | 3 h | > 12 h | N[C@@H](CNC(=O)N[C@@H](CSSCC(=O)C(=O)NCCc1ccc(O)c(O)c1)C(=O)NCC(=O)O)C(=O)O | Active |
| – | – | – | N[C@@H](CNC(=O)N[C@@H](CSSCC(=O)C(=O)NC12CC3CC(CC(C3)C1)C2)C(=O)NCC(=O)O)C(=O)O | Active |

From ChEMBL document CHEMBL1155946, “Design, synthesis and biological evaluation of glutathione peptidomimetics as components of anti-Parkinson prodrugs” (J Med Chem, 2008)
